This passage reports AC50 and EC50 results from US20240316038A1, “APOL1 INHIBITORS AND METHODS OF USE” (Maze Therapeutics, Inc., priority 2021, published 2024).

Assay [1] concerns the target T1, APOL1 G2 (Homo sapiens, UniProt O14791, DEL388-389).
T1 construct: expressed in transfected cells; host or cells: HEK293 T-REx clonal lines: HEK T-REx/GCaMP6f/APOL1 G2 K6.3 in A1, HEK293/T-REx APOL1 G2/clone #2 in A2
T1 sequence (O14791 with tags, fused parts or gaps DEL388-389): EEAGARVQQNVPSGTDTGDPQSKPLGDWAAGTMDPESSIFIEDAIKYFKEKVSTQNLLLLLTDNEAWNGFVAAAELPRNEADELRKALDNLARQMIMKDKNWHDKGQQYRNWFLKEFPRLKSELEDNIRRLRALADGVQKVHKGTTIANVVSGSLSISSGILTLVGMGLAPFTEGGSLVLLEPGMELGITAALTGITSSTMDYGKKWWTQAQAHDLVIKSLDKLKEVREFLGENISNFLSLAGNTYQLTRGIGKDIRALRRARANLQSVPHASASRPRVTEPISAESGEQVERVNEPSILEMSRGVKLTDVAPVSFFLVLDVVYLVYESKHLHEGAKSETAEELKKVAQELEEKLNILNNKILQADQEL
Put plainly: APOL1 calcium transport inhibition assay (GCaMP6f calcium influx, FLIPR) in HEK T-REx/GCaMP6f/APOL1 G2 K6.3 cells. The class given is cell-based. To be noted: inhibition of APOL1-mediated calcium influx; geometric mean of at least 2 assay runs, † = single assay run (technical duplicate). Put shortly:
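HEK293 cells stably expressing GCaMP6f, APOL1 G2 induced 6 h with doxycycline (20 ng/mL added), then washed into Ca2+-free Tyrode's buffer pH 7.4. Compounds (8-point dose response) preincubated 10 min at room temperature, then Ca2+ injected to 5 mM final and influx read on FLIPR. AC50 reported as geometric mean of runs.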

In assay [2] the target is T1, APOL1 G2. Put plainly: Rescue of HEK293 cell death caused by overexpression of APOL1 (CellTiter-Glo luminescence), HEK293/T-REx APOL1 G2/clone #2. The class given is cell-based. As to conditions: reversal of cell death caused by overexpression of APOL1; geometric mean of at least 2 assay runs, † = single assay run (technical duplicate). In short, it runs like this:
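HEK293/T-REx APOL1 G2 clone #2 cells, 5,000/well, induced with 6 ng/mL doxycycline and exposed to compound (8-point, 3-fold dilutions, 0.5% DMSO) for 17 h at 37 °C. Viability by CellTiter-Glo luminescence; EC50 for reversal of APOL1-induced death from a four-parameter logistic fit, geometric mean of ≥2 runs.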
For orientation: In ATP-based viability assays light output follows the ATP content of the culture.

SMILES strings stand for the structures. A value given as a limit tells only on which side of the number the result lay.

`COC1CCN(CCc2cccc(Cl)c2)CC1COc1ccc(S(C)(=O)=O)cc1` (single isomer, unassigned) [Compound 35, (3S,4R) or (3R,4R) or (3S,4S) or (3R,4S)-1-(3-chlorophenethyl)-4-methoxy-3-((4-(methylsulfonyl)phenoxy)methyl)piperidine]: the concentration at half-maximal activity (AC50) – broadly, the concentration at which the activity in the assay is half-maximal – on APOL1 G2 [1] is 3780 nM. On APOL1 G2 [2], the EC50 (commonly the concentration that produces a half-maximal response) was found to be 6130 nM.
For `COC1CCN(CCc2cccc(Cl)c2)CC1COc1ccc(S(C)(=O)=O)cc1` (single isomer, unassigned) [Compound 36, (3R,4R) or (3S,4S) or (3R,4S) or (3S,4R)-1-(3-chlorophenethyl)-4-methoxy-3-((4-(methylsulfonyl)phenoxy)methyl)piperidine], in that order: 14200 nM and more than 30000 nM.
Consider `COC1CCN(CCc2cccc(Cl)c2)CC1COc1ccc(S(C)(=O)=O)cc1` (single isomer, unassigned) [Compound 37, (3R,4R) or (3S,4S) or (3R,4S) or (3S,4R)-1-(3-chlorophenethyl)-4-methoxy-3-((4-(methylsulfonyl)phenoxy)methyl) piperidine], for which the AC50 on APOL1 G2 [1] came to 3840 nM. For the same compound, the EC50 on APOL1 G2 [2] was more than 6150 nM.
Turning to `COC1CCN(CCc2cccc(Cl)c2)CC1COc1ccc(S(C)(=O)=O)cc1` (single isomer, unassigned) [Compound 38, (3S,4S) or (3R,4S) or (3 S,4R) or (3R,4R)-1-(3-chlorophenethyl)-4-methoxy-3-((4-(methylsulfonyl)phenoxy)methyl) piperidine], on APOL1 G2 [1], the AC50 was less than 253 nM. In addition, on APOL1 G2 [2], the EC50 was found to be 407 nM.
For `CS(=O)(=O)c1ccc(CCC2CCCN(CCc3cccc(Cl)c3)C2)cc1` (single isomer, unassigned) [Compound 40, (S) or (R)-1-(3-chlorophenethyl)-3-(4-(methylsulfonyl)phenethyl)piperidine], in that order: less than 118 nM and 746 nM.
For `CS(=O)(=O)c1ccc(CCC2CCCN(CCc3cccc(Cl)c3)C2)cc1` (single isomer, unassigned) [Compound 41, (R) or (S)-1-(3-chlorophenethyl)-3-(4-(methylsulfonyl)phenethyl)piperidine] the same measures were 2110 nM and 2820 nM.
Regarding `CC1(C)CC(COc2ccc(S(C)(=O)=O)cc2)CN1CCc1cccc(Cl)c1` (single isomer, unassigned) [Compound 43, (S) or (R)-1-(3-chlorophenethyl)-2,2-dimethyl-4-((4-(methylsulfonyl)phenoxy)methyl) pyrrolidine], on APOL1 G2 [1], the AC50 amounted to 237 nM. For the same compound, at APOL1 G2 [2], the EC50 was 31 nM.
For `CC1(C)CC(COc2ccc(S(C)(=O)=O)cc2)CN1CCc1cccc(Cl)c1` (single isomer, unassigned) [Compound 44, (R) or (S)-1-(3-chlorophenethyl)-2,2-dimethyl-4-((4-(methylsulfonyl)phenoxy)methyl)pyrrolidine] the same measures were 2220 nM and 2430 nM.
As to `C[C@@H]1CN(CCc2cccc(Cl)c2)C[C@H]1COc1ccc(N(C)S(C)(=O)=O)cc1` (single isomer, unassigned) [Compound 46, N-(4-(((3S,4S) or (3R,4R)-1-(3-chlorophenethyl)-4-methylpyrrolidin-3-yl)methoxy)phenyl)-N-methylmethanesulfonamide], the half-maximal activity concentration (AC50) at APOL1 G2 [1] was found to be 90.2 nM. Besides, at APOL1 G2 [2], the EC50 was determined as 21 nM.
As for `C[C@H]1CN(CCc2cccc(Cl)c2)C[C@@H]1COc1ccc(N(C)S(C)(=O)=O)cc1` (single isomer, unassigned) [Compound 47, N-(4-(((3R,4R) or (3S,4S)-1-(3-chlorophenethyl)-4-methylpyrrolidin-3-yl)methoxy)phenyl)-N-methylmethanesulfonamide], the AC50 on APOL1 G2 [1] was 434 nM. The EC50 at APOL1 G2 [2] amounted to 516 nM.
For `CC1CC(COc2ccc(S(C)(=O)=O)cc2)CN1CCc1cccc(Cl)c1` (single isomer, unassigned) [Compound 53, rac-trans or cis-1-(3-chlorophenethyl)-2-methyl-4-((4-(methylsulfonyl)phenoxy)methyl)pyrrolidine] the same measures were 856 nM and 1120 nM.
For the compound `CC1CC(COc2ccc(S(C)(=O)=O)cc2)CN1CCc1cccc(Cl)c1` (single isomer, unassigned) [Compound 54, rac-cis or trans-1-(3-chlorophenethyl)-2-methyl-4-((4-(methylsulfonyl)phenoxy)methyl)pyrrolidine], the AC50 on APOL1 G2 [1] is less than 114 nM. The EC50 at APOL1 G2 [2] was more than 30000 nM.
`CC1CC(COc2ccc(S(C)(=O)=O)cc2)CN1CCc1cccc(Cl)c1` (single isomer, unassigned) [Compound 55, (2R,4S) or (2R,4R) or (2S,4R) or (2S,4S)-1-(3-chlorophenethyl)-2-methyl-4-((4-(methylsulfonyl)phenoxy)methyl)pyrrolidine]: the AC50 on APOL1 G2 [1] was 1290 nM. Besides, the EC50 on APOL1 G2 [2] amounted to 1680 nM.
Take `CC1CC(COc2ccc(S(C)(=O)=O)cc2)CN1CCc1cccc(Cl)c1` (single isomer, unassigned) [Compound 56, (2R,4R) or (2S,4R) or (2S,4S) or (2R,4S)-1-(3-chlorophenethyl)-2-methyl-4-((4-(methylsulfonyl)phenoxy)methyl)pyrrolidine]: at APOL1 G2 [1], the half-maximal activity concentration (AC50) is 580 nM. Further, the EC50 at APOL1 G2 [2] is 1680 nM.
For `CC1CC(COc2ccc(S(C)(=O)=O)cc2)CN1CCc1cccc(Cl)c1` (single isomer, unassigned) [Compound 57, (2S,4R) or (2S,4S) or (2R,4S) or (2R,4R)-1-(3-chlorophenethyl)-2-methyl-4-((4-(methylsulfonyl)phenoxy)methyl)pyrrolidine] the same measures were less than 5000 nM and 1680 nM.
Turning to `CC1CC(COc2ccc(S(C)(=O)=O)cc2)CN1CCc1cccc(Cl)c1` (single isomer, unassigned) [Compound 58, (2S,4S) or (2R,4S) or (2R,4R) or (2S,4R)-1-(3-chlorophenethyl)-2-methyl-4-((4-(methylsulfonyl)phenoxy)methyl)pyrrolidine], the AC50 at APOL1 G2 [1] came out at 72.7 nM. On APOL1 G2 [2], the EC50 is less than 41 nM.
For `CS(=O)(=O)c1ccc(OC[C@@H](O)CN2CCCCC2Cc2cccc(Cl)c2)cc1` (single isomer, unassigned) [Compound 63, (2S)-1-((S) or (R)-2-(3-chlorobenzyl)piperidin-1-yl)-3-(4-(methylsulfonyl)phenoxy)propan-2-ol] the same measures were 637 nM and 3960 nM.
With `CS(=O)(=O)c1ccc(OC[C@@H](O)CN2CCCCC2Cc2cccc(Cl)c2)cc1` (single isomer, unassigned) [Compound 64, (2S)-1-((R) or (S)-2-(3-chlorobenzyl)piperidin-1-yl)-3-(4-(methylsulfonyl)phenoxy)propan-2-ol], the half-maximal activity concentration (AC50) on APOL1 G2 [1] was 570 nM. Besides, on APOL1 G2 [2], the concentration for a half-maximal effect (EC50) was determined as 1120 nM.
For `CN(c1ccc(OC[C@@H](O)CN2CCC(c3cccc(Cl)c3)C2(C)C)cc1)S(C)(=O)=O` (single isomer, unassigned) [Compound 69, N-(4-((S)-3-((S) or (R)-3-(3-chlorophenyl)-2,2-dimethylpyrrolidin-1-yl)-2-hydroxypropoxy)phe-nyl)-N-methylmethanesulfon-amide], in that order: 12900 nM and more than 30000 nM.
`CN(c1ccc(OC[C@@H](O)CN2CCC(c3cccc(Cl)c3)C2(C)C)cc1)S(C)(=O)=O` (single isomer, unassigned) [Compound 70, N-(4-((R)-(S)-3-((R) or (S)-3-(3-chlorophenyl)-2,2-dimethylpyrrolidin-1-yl)-2-hydroxypropoxy)phe-nyl)-N-methylmethanesulfon-amide]: the AC50 on APOL1 G2 [1] came to 295 nM. Besides, the EC50 at APOL1 G2 [2] was determined as 303 nM.
For `CN(c1ccc(OC[C@H](O)CN2CCC(c3cccc(Cl)c3)C2(C)C)cc1)S(C)(=O)=O` (single isomer, unassigned) [Compound 72, N-(4-((R)-3-((S) or (R)-3-(3-chlorophenyl)-2,2-dimethylpyrrolidin-1-yl)-2-hydroxypropoxy)phe-nyl)-N-methylmethanesulfon-amide], in that order: 314 nM and 1220 nM.
Turning to `CN(c1ccc(OC[C@H](O)CN2CCC(c3cccc(Cl)c3)C2(C)C)cc1)S(C)(=O)=O` (single isomer, unassigned) [Compound 73, N-(4-((R)-3-((R) or (S)-3-(3-chlorophenyl)-2,2-dimethylpyrrolidin-1-yl)-2-hydroxypropoxy)phe-nyl)-N-methylmethanesulfon-amide], at APOL1 G2 [1], the AC50 was 3060 nM. Also, on APOL1 G2 [2], the EC50 was more than 17800 nM.
